System: sugar cane Variety RB 86-7515
Assay: Greenhouse pot test of formulated agrochemicals on vigour (tillers, plant height, leaf width, culm diameter)
Settings: for number of tillers in comparison with the control / plant height in comparison with the control: greenhouse, rate of the respective example
Text: 1) carretel with one bud treated with abamectin 2) carretel with one bud treated with abamectin+15% v/v of polymer 3) stalk with 3 buds untreated 4) carretel with one bud untreated 5) carretel with one bud untreated+15% v/v of polymer 6) stalk with 3 buds treated with abamectin.
Twenty 1 L pots were filled with 16 L of clay soil, 1.6 L of sand and 8 g of nitrogen, 28 g of phosphorus (P2O5) and 16 g of potassium (K2O). Six carretels of 4 cm length with only one bud were planted in each pot (treatments 1, 2, 4 and 5). Two stalks with three buds were planted in each control pot (treatments 3 and 6) to simulate conventional planting. A layer of 3 cm of soil was used to cover the carretels. […] The stalks were treated simulating a furrow application at 100 L.ha^−1 of slurry. Experimental design adopted was randomized complete block with four replications. The pots were maintained with adequate moisture during the test. Evaluations of: plant height, leaf width, culm diameter and number of tillers were done at 20, 30 and 42 days after planting.

| Compound | number of tillers in comparison with the control (result in words) | plant height in comparison with the control (result in words) | increase in "quality" (result in words, not apparent from the measured parameters) | Tillers (abamectin 100 g ai/ha, carretel with one bud, dipped in slurry 3 min, 42 days after planting) [number] |
| --- | --- | --- | --- | --- |
| CN/C(=N\[N+](=O)[O-])NCc1cnc(Cl)s1 [Clothianidin, clothianidin] | increased | slight reduction | – | – |
| N#Cc1nn(-c2c(Cl)cc(C(F)(F)F)cc2Cl)c(N)c1[S+]([O-])C(F)(F)F (centres unmarked) [Fipronil, fipronil] | increased | decreased | – | – |
| O=[N+]([O-])NC1=NCCN1Cc1ccc(Cl)nc1 [Imidacloprid] | increase | – | – | – |
| CN1COCN(Cc2cnc(Cl)s2)/C1=N\[N+](=O)[O-] [Thiamethoxam, thiamethoxam] | increased | reduced | greater than the other treatments | – |
| abamectin | increase | decrease | – | 14 |
